Reference: patent US8343983B2, “Substituted pyrazolo-pyrimidine compounds” (ArQule, Inc., priority 2009, dated 2013)
Like-named read-outs stand apart in the source and are kept apart here.

Test system: cancer cells
Experiment: MTS assay: inhibition of cell growth (formazan absorbance at 492 nm after 72 hours with test compound)
Assay type: cell-based
Settings: inhibition class
Procedure, shortened: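 DMEM with 1% FBS; cells seeded at 3000/well and grown 18 h at 37 °C, then exposed to compound for 72 h and to MTS/PMS for 4 h. IC50 is the concentration giving a 50% absorbance drop; grades are % inhibition bands.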

[1] = Homo sapiens, DLD-1 cells, read-out: DLD-1, MTS 72 hours at 10 uM
[2] = Homo sapiens, KATO III cells, read-out: KATO III, MTS 72 hours at 10 uM
[3] = Homo sapiens, MDA-MB-231 cells, read-out: MDA-MB-231, MTS 72 hours at 10 uM
[4] = Homo sapiens, NCI-H1299 cells, read-out: NCI-H1299, MTS 72 hours at 10 uM
[5] = Homo sapiens, PC-3 cells, read-out: PC-3, MTS 72 hours at 10 uM
[6] = PACA-2 cells, read-out: PACA-2, MTS 72 hours at 10 uM

Compound	inhibition at 10 µM [1] [%]	inhibition at 10 µM [2] [%]	inhibition at 10 µM [3] [%]	inhibition at 10 µM [4] [%]	inhibition at 10 µM [5] [%]	inhibition at 10 µM [6] [%]
CN(C)CCCNc1nc2c3c(n[nH]c3n1)C(C(=O)NCc1ccccc1)CN2Cc1ccccc1 (stereo not drawn) [Compound 223, N,6-dibenzyl-4-{[3-(dimethylamino)propyl]ami-no}-2,6,7,8-tetrahydro-1,2,3,5,6-pentaazaacenaphthylene-8-carboxamide]	< 50	< 50	< 50	< 50	< 50	< 50
Fc1ccccc1CN1CCN(c2nc3c4c(n[nH]c4n2)CCN3Cc2ccccc2)CC1 [Compound 5, 6-benzyl-4-[4-(2-fluorobenzyl)piperazin-1-yl]-2,6,7,8-tetrahydro-1,2,3,5,6-pentaazaacenaphthylene]	< 50	50 to 79	> 79	< 50	> 79	< 50
COc1ccc(CN2CCc3n[nH]c4nc(NCCN5CCOCC5)nc2c34)cc1 [Compound 105, 6-(4-methoxybenzyl)-N-(2-morpholin-4-ylethyl)-2,6,7,8-tetrahydro-1,2,3,5,6-pentaazaacenaphthylen-4-amine]	> 79	> 79	> 79	> 79	> 79	> 79
COc1ccc(CN2CCc3n[nH]c4nc(NCc5ccccc5)nc2c34)cc1 [Compound 100, N-benzyl-6-(4-methoxybenzyl)-2,6,7,8-tetrahydro-1,2,3,5,6-pentaazaacenaphthylen-4-amine]	< 50	< 50	< 50	< 50	< 50	< 50
c1ccc(CNc2nc3c4c(n[nH]c4n2)CCN3c2ccccc2)cc1 [Compound 208, N-benzyl-6-phenyl-2,6,7,8-tetrahydro-1,2,3,5,6-pentaazaacenaphthylen-4-amine]	< 50	< 50	< 50	< 50	< 50	< 50
CSc1nc2c3c(nn(C)c3n1)CCN2Cc1ccccc1 [Compound 171, 6-benzyl-2-methyl-4-(methylsulfanyl)-2,6,7,8-tetrahydro-1,2,3,5,6-pentaazaacenaphthylene]	> 79	> 79	> 79	50 to 79	> 79	> 79
c1ccc(CN2CCc3n[nH]c4nc(N5CCN6CCCC6C5)nc2c34)cc1 (stereo not drawn) [Compound 42, 6-benzyl-4-(hexahydropyrrolo[1,2-a]pyrazin-2(1H)-yl)-2,6,7,8-tetrahydro-1,2,3,5,6-pentaazaacenaphthylene]	< 50	< 50	< 50	< 50	< 50	< 50
CCCCNc1nc2c3c(n[nH]c3n1)CCN2Cc1ccccc1 [Compound 84, 6-benzyl-N-butyl-2,6,7,8-tetrahydro-1,2,3,5,6-pentaazaacenaphthylen-4-amine]	> 79	> 79	> 79	> 79	> 79	> 79
c1ccc(CN2CCc3n[nH]c4nc(N5CCN(CCc6ccncc6)CC5)nc2c34)cc1 [Compound 74, 6-benzyl-4-[4-(2-pyridin-4-ylethyl)piperazin-1-yl]-2,6,7,8-tetrahydro-1,2,3,5,6-pentaazaacenaphthylene]	< 50	< 50	< 50	< 50	< 50	< 50
CSc1nc2c3c(n[nH]c3n1)CCN2Cc1ccccc1 [Compound 1, 6-benzyl-4-(methylthio)-2,6,7,8-tetrahydro-1,2,3,5,6-pentaazaacenaphthylene]	< 50	< 50	< 50	< 50	< 50	< 50
COc1ccc(CN2CCc3nn(C)c4nc(SC)nc2c34)cc1 [Compound 130, 6-(4-methoxybenzyl)-2-methyl-4-(methylsulfanyl)-2,6,7,8-tetrahydro-1,2,3,5,6-pentaazaacenaphthylene]	< 50	< 50	< 50	< 50	< 50	50 to 79
O=C(NCc1ccccc1)C1CN(Cc2ccccc2)c2nc(N3CCCCC3)nc3[nH]nc1c23 (stereo not drawn) [Compound 227, N,6-dibenzyl-4-piperidin-1-yl-2,6,7,8-tetrahydro-1,2,3,5,6-pentaazaacenaphthylene-8-carboxamide]	> 79	50 to 79	> 79	> 79	> 79	< 50
O=C(NCc1ccc2c(c1)OCO2)C1CN(Cc2ccccc2)c2nc(NCc3ccccc3)nc3[nH]nc1c23 (stereo not drawn) [Compound 234, N-(1,3-benzodioxol-5-ylmethyl)-6-benzyl-4-(benzylamino)-2,6,7,8-tetrahydro-1,2,3,5,6-pentaazaacenaphthylene-8-carboxamide]	> 79	> 79	> 79	> 79	> 79	50 to 79
COc1ccc(CN2CCc3n[nH]c4nc(NCCc5ccccc5)nc2c34)cc1 [Compound 116, 6-(4-methoxybenzyl)-N-(2-phenylethyl)-2,6,7,8-tetrahydro-1,2,3,5,6-pentaazaacenaphthylen-4-amine]	> 79	> 79	> 79	> 79	> 79	> 79
FC(F)(F)c1ccnc(N2CCN(c3nc4c5c(n[nH]c5n3)CCN4Cc3ccccc3)CC2)n1 [Compound 4, 6-benzyl-4-{4-[4-(trifluoromethyl)pyrimidin-2-yl]piperazin-1-yl}-2,6,7,8-tetrahydro-1,2,3,5,6-pentaazaacenaphthylene]	50 to 79	< 50	> 79	> 79	> 79	< 50
CN1CCN(c2nc3c4c(n[nH]c4n2)C(C(=O)NCc2ccccc2)CN3Cc2ccccc2)CC1 (stereo not drawn) [Compound 228, N,6-dibenzyl-4-(4-methylpiperazin-1-yl)-2,6,7,8-tetrahydro-1,2,3,5,6-pentaazaacenaphthylene-8-carboxamide]	< 50	< 50	< 50	< 50	< 50	< 50
COc1ccc(CN2CCCc3n[nH]c4nc(NCc5ccccc5Cl)nc2c34)cc1 [Compound 250, N-(2-chlorobenzyl)-6-(4-methoxybenzyl)-6,7,8,9-tetrahydro-2H-1,2,3,5,6-pentaazabenzo[cd]azulen-4-amine]	50 to 79	> 79	50 to 79	< 50	> 79	> 79
